Experiment: xn = mol fraction of the nth substance listed
Settings: 100 kPa, Liquid; for viscosity: Falling or rolling sphere viscometry; for mass density: Vibrating tube method

CCCCC1CCCCC1 [butylcyclohexane] + CCCCCCCC
Settings | mass density, 293.15 K [kg/m3] | mass density, 298.15 K [kg/m3] | mass density, 303.15 K [kg/m3] | mass density, 308.15 K [kg/m3] | mass density, 313.15 K [kg/m3] | viscosity, 293.15 K [mPa·s] | viscosity, 298.15 K [mPa·s] | viscosity, 303.15 K [mPa·s] | viscosity, 308.15 K [mPa·s] | viscosity, 313.15 K [mPa·s]
x1 = 0.0495 | 708.15 | 704.15 | 700.12 | 696.06 | 691.99 | 0.569 | 0.547 | 0.515 | 0.49 | 0.464
x1 = 0.1008 | 713.59 | 709.59 | 705.57 | 701.55 | 697.5 | 0.596 | 0.573 | 0.54 | 0.512 | 0.486
x1 = 0.198 | 723.69 | 719.73 | 715.74 | 711.75 | 707.72 | 0.647 | 0.619 | 0.582 | 0.552 | 0.524
x1 = 0.3011 | 734.16 | 730.24 | 726.28 | 722.33 | 718.33 | 0.707 | 0.671 | 0.63 | 0.592 | 0.565
x1 = 0.4008 | 744.07 | 740.18 | 736.26 | 732.33 | 728.38 | 0.771 | 0.726 | 0.68 | 0.638 | 0.606
x1 = 0.4982 | 753.55 | 749.7 | 745.81 | 741.91 | 737.98 | 0.839 | 0.784 | 0.735 | 0.687 | 0.652
x1 = 0.5985 | 763.12 | 759.29 | 755.43 | 751.56 | 747.67 | 0.918 | 0.854 | 0.799 | 0.747 | 0.705
x1 = 0.6997 | 772.58 | 768.77 | 764.94 | 761.1 | 757.24 | 1.004 | 0.931 | 0.87 | 0.814 | 0.765
x1 = 0.7997 | 781.72 | 777.93 | 774.13 | 770.31 | 766.48 | 1.097 | 1.014 | 0.945 | 0.886 | 0.83
x1 = 0.9001 | 790.72 | 786.95 | 783.18 | 779.39 | 775.59 | 1.2 | 1.108 | 1.029 | 0.962 | 0.898
x1 = 0.951 | 795.17 | 791.42 | 787.66 | 783.88 | 780.1 | 1.25 | 1.156 | 1.07 | 0.996 | 0.93
x1 = 1 | 799.44 | 795.7 | 791.95 | 788.19 | 784.41 | 1.296 | 1.196 | 1.107 | 1.027 | 0.958

— the NIST ThermoML archive (doi:10.1021/je400835u)
